The assay deals with T1, hMCHR (Homo sapiens, UniProt Q99705).
T1 construct: host or cells: CHO (Chinese hamster ovary) cells, membranes
T1 sequence (Q99705 whole entry): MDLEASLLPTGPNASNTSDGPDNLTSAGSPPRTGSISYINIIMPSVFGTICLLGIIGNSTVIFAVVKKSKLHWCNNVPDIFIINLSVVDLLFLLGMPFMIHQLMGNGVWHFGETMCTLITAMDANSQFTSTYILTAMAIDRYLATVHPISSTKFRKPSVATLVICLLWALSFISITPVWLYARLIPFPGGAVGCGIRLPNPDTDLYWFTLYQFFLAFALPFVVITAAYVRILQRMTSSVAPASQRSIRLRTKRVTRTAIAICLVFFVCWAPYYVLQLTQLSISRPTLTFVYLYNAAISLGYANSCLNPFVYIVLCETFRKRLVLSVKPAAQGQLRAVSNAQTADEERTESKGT
Kind of assay: MCH Assay PCOP Protocol: [125I]-MCH binding to hMCHR-CHO membranes, WGA-SPA beads. Conditions: hMCHR-CHO overexpressing membranes, 0.5 nM [125I]-MCH, 2 hours incubation. The protocol: A reaction mixture of 10 μg hMCHR-CHO overexpressing membranes (from Receptor Biology, Inc., Beltville, Md., or internally produced) and 100 μg/well WGA-SPA beads (from Amersham Pharmacia Biotech, Inc., Piscataway, N.J.)/100 μL was prepared in MCHR assay buffer (25 mM HEPES, pH 7.4, 10 mM NaCl, 10 mM MgCl2, 5 mM MnCl2, 0.1%BSA). […] The assay plates were shaken for 5 minutes on a plate shaker, then incubated for 2 hours before cpm/well were determined in a Microbeta Trilux counter (from Perkin Elmer Wallac, Inc., Gaithersburg, Md.).
Broadly, the Ki is the equilibrium dissociation constant of an inhibitor or competing ligand from its target. A low value points to higher affinity. Regarding `CN1CCC2(CC1)CN(C(=O)Nc1ccc(F)c(Cl)c1)c1cc(-c3cccc(C#N)c3)ccc12` [Example 17, 1-(3-Chloro-4-fluorophenyl)ureido-6-(3-cyanophenyl)-1′-methyl-spiro[indoline-3,4′-piperidine]], the inhibition constant (Ki) fell in the range of 101 to 5500 nM.
With `O=C(Nc1cc(Cl)cc(Cl)c1)N1CCC(CNCC2CC2)(c2ccc(-c3ccc4c(c3)OCO4)cc2)CC1` [Example 125] the figure was 101 to 5500 nM; with `N#Cc1cccc(-c2ccc(C3(CNC(=O)Nc4ccc(F)c(Cl)c4)CCN(CCC(F)(F)F)CC3)cc2)c1` [Example 117], 0.2 to 10 nM; with `O=C(NCC1(c2ccc(-c3cccc(Cl)c3)cc2)CCN(CC2CC2)CC1)Nc1ccc(F)c(Cl)c1` [Example 49], 0.2 to 10 nM.
Under `CN1CCC(CNC(=O)Nc2cc(F)cc(F)c2)(c2ccc(-c3cccc(Cl)c3)cc2)CC1` [Example 55] stands 0.2 to 10 nM; under `CN1CCC(CNC(=O)Nc2ccc(Cl)c(C(F)(F)F)c2)(c2ccc(-c3cccc(Cl)c3)cc2)CC1` [Example 51], 0.2 to 10 nM; under `CCCN1CCC(CNC(=O)Nc2cc(C(F)(F)F)ccc2Cl)(c2ccc(-c3cccc(Cl)c3)cc2)CC1` [Example 58], 101 to 5500 nM.
On to `CN1CCC(CNC(=O)Nc2cc(Cl)cc(Cl)c2)(c2ccc(-c3ccc4[nH]ccc4c3)cc2)CC1` [Example 78], for which the Ki fell in the range of 101 to 5500 nM.
`N#Cc1cccc(-c2ccc(C3(CNC(=O)Nc4ccc(Cl)c(C(F)(F)F)c4)CCN(CC4CC4)CC3)cc2)c1` [Example 50]: the Ki was 0.2 to 10 nM.
With `CN1CCC(CNC(=O)Nc2cc(Cl)cc(Cl)c2)(c2ccc(-c3cc4ccccc4o3)cc2)CC1` [Example 40], the Ki lay within 101 to 5500 nM.
`CCCN1CCC(CNC(=O)Nc2ccc(Cl)cc2C(F)(F)F)(c2ccc(-c3cccc(Cl)c3)cc2)CC1` [Example 52] yielded a Ki of 101 to 5500 nM.
The compound `CCN1CCC(CNC(=O)Nc2cc(Cl)cc(Cl)c2)(c2ccc(-c3cccc(OC(F)(F)F)c3)cc2)CC1` [Example 123] registered a Ki of 11 to 100 nM.
Take `CC(=O)Nc1cccc(-c2ccc(C3(CNC(=O)Nc4cc(Cl)cc(Cl)c4)CCN(C4CCOCC4)CC3)cc2)c1` [Example 110]: the Ki lay within 11 to 100 nM.
With `COCCN1CCC(CNC(=O)Nc2ccc(Cl)c(C(F)(F)F)c2)(c2ccc(-c3cccc(C#N)c3)cc2)CC1` [Example 94] the figure was 0.2 to 10 nM.
For the compound `CCCN1CCC(CNC(=O)Nc2ccc(Cl)c(C(F)(F)F)c2)(c2ccc(-c3cccc(Cl)c3)cc2)CC1` [Example 64], the Ki lay within 11 to 100 nM.
As for `CC(=O)Nc1cccc(-c2ccc(C3(CNC(=O)Nc4cc(Cl)cc(Cl)c4)CCN(C4CCCCC4)CC3)cc2)c1` [Example 122], the Ki lay within 0.2 to 10 nM.
The compound `O=C(NCC1(c2ccc(-c3cccc(Cl)c3)cc2)CCN(C2CCCC2)CC1)Nc1cc(Cl)cc(Cl)c1` [Example 77] yielded a Ki of 0.2 to 10 nM.
In the case of `CCCN1CCC(CNC(=O)Nc2ccc(F)c(C(F)(F)F)c2)(c2ccc(-c3cccc(C#N)c3)cc2)CC1` [Example 103], the Ki lay in the range of 0.2 to 10 nM.
`N#Cc1cccc(-c2ccc(C3(CNC(=O)Nc4cc(C(F)(F)F)ccc4Cl)CCN(CC4CC4)CC3)cc2)c1` [Example 68] came in with a Ki of 11 to 100 nM.
With `COCCN1CCC(CNCc2cc(Cl)cc(Cl)c2)(c2ccc(-c3cccc(C#N)c3)cc2)CC1` [Example 127] the figure was 101 to 5500 nM; with `O=C(NCC1(c2ccc(-c3ccc4c(c3)OCO4)cc2)CCN(C2CCCC2)CC1)Nc1cc(Cl)cc(Cl)c1` [Example 81], 0.2 to 10 nM; with `CN1CCC(CNC(=O)Nc2ccc(Cl)cc2C(F)(F)F)(c2ccc(-c3cccc(C#N)c3)cc2)CC1` [Example 67], 101 to 5500 nM.
In turn, `CCCNCC1(c2ccc(-c3cccc(C#N)c3)cc2)CCN(C(=O)Nc2cc(Cl)cc(Cl)c2)CC1` [Example 134] displayed an inhibition constant Ki of 11 to 100 nM.
`N#Cc1cccc(-c2ccc(C3(CNC(=O)Cc4cc(F)cc(F)c4)CCN(CC4CC4)CC3)cc2)c1` [Example 10, N-[4-(3′-Cyano-biphenyl-4-yl)-1-cyclopropylmethyl-piperidin-4-ylmethyl]-2-(3.5-difluoro-phenyl)-acetamide] registered a Ki of 101 to 5500 nM.
Compound `CN1CCC(CNC(=O)Nc2ccc(Cl)cc2Cl)(c2ccc(-c3cccc(C#N)c3)cc2)CC1` [Example 36] gave a Ki of 11 to 100 nM.
In turn, `CN(CC1(c2ccc(-c3cccc(C#N)c3)cc2)CCN(CC2CC2)CC1)C(=O)Nc1cc(F)cc(F)c1` [Example 97] returned an inhibition constant (Ki) of 11 to 100 nM.
With `COCCN1CCC(CNC(=O)Nc2cc(Cl)cc(Cl)c2)(c2ccc(-c3cccc(CO)c3)cc2)CC1` [Example 93] the figure was 0.2 to 10 nM; with `CN(C)S(=O)(=O)N1CCC(CNC(=O)Nc2cc(Cl)cc(Cl)c2)(c2ccc(-c3cccc(C#N)c3)cc2)CC1` [Example 31], 11 to 100 nM.
In the case of `CCCN1CCC2(CC1)CN(C(=O)Nc1ccc(F)c(Cl)c1)c1ccc(-c3cccc(C#N)c3)cc12` [Example 46], the inhibition constant Ki lay within 101 to 5500 nM.
Take `CCCN1CCC(CNC(=O)Nc2cc(F)cc(F)c2)(c2ccc(-c3cccc(C#N)c3)cc2)CC1` [Example 102]: the inhibitory constant (Ki) is 0.2 to 10 nM.
The compound `N#Cc1cccc(-c2ccc(C3(CNC(=O)Nc4cc(F)cc(F)c4)CCN(CC4CC4)CC3)cc2)c1` [Example 96] showed a Ki of 0.2 to 10 nM.
On to `CN1CCC2(CC1)CN(C(=O)Nc1ccc(F)c(Cl)c1)c1cccc(-c3cccc(C#N)c3)c12` [Example 75], for which the Ki was 101 to 5500 nM.
With `O=C(Nc1cc(Cl)cc(Cl)c1)N1CCC(CN(CC2CC2)CC2CC2)(c2ccc(-c3ccc4c(c3)OCO4)cc2)CC1` [Example 132] the figure was 101 to 5500 nM; with `COCCN1CCC(CNC(=O)Nc2cc(F)cc(C(F)(F)F)c2)(c2ccc(-c3cccc(C#N)c3)cc2)CC1` [Example 89], 0.2 to 10 nM.
The compound `CC(=O)Nc1cccc(-c2ccc(C3(CNC(=O)Nc4cc(Cl)cc(Cl)c4)CCN(C(C)C)CC3)cc2)c1` [Example 79] displayed a Ki of 0.2 to 10 nM.
For `CN1CCC(CNC(=O)Nc2ccccc2)(c2ccc(-c3cccc(Cl)c3)cc2)CC1` [Example 62], the Ki fell in the range of 0.2 to 10 nM.
Compound `CN1CCC(CNC(=O)Nc2cc(Cl)cc(Cl)c2)(c2ccc(-c3cccc(N)c3)cc2)CC1` [Example 41] yielded a Ki of 11 to 100 nM.
In turn, `CCCN(CCC)CC1(c2ccc(-c3cccc(C#N)c3)cc2)CCN(C(=O)Nc2cc(Cl)cc(Cl)c2)CC1` [Example 133] yielded a Ki of 101 to 5500 nM.
As to `CN(CC1(c2ccc(-c3cccc(C#N)c3)cc2)CCN(CC2CC2)CC1)C(=O)Nc1ccc(Cl)c(C(F)(F)F)c1` [Example 104], the Ki lay in the range of 11 to 100 nM.
As to `COCCN1CCC2(CC1)CN(C(=O)Nc1ccc(F)c(Cl)c1)c1ccc(-c3cccc(C#N)c3)cc12` [Example 86], the Ki lay within 101 to 5500 nM.
Consider `Cc1ccc(C2(CNC(=O)Nc3cc(Cl)cc(Cl)c3)CCN(C3CCCC3)CC2)cc1` [Example 26], for which the inhibition constant (Ki) was 101 to 5500 nM.
For the compound `CN1CCC(CN2CCN(c3ccc(F)c(F)c3)C2=O)(c2ccc(-c3cccc(C#N)c3)cc2)CC1` [Example 13], the Ki lay in the range of 11 to 100 nM.
Compound `CCCN1CCC(CNC(=O)Nc2ccc3c(c2)OCO3)(c2ccc(-c3cccc(C#N)c3)cc2)CC1` [Example 101] showed a Ki of 11 to 100 nM.
`O=C(NCC1(c2ccc(-c3cccnc3)cc2)CCN(C2CCCC2)CC1)Nc1cc(Cl)cc(Cl)c1` [Example 20] came in with a Ki of 0.2 to 10 nM.
Compound `CCCN1CCC(CNC(=O)Nc2ccc(F)c(Cl)c2)(c2ccc(-c3cccc(C#N)c3)cc2)CC1` [Example 65] had a Ki of 0.2 to 10 nM.
The compound `CN(CC1(c2ccc(-c3cccc(C#N)c3)cc2)CCN(CC2CC2)CC1)C(=O)Nc1ccc(F)c(Cl)c1` [Example 99] yielded a Ki of 11 to 100 nM.
Under `CCN1CCC(CNC(=O)Nc2cc(Cl)cc(Cl)c2)(c2ccc(-c3cccc(Cl)c3)cc2)CC1` [Example 121] stands 11 to 100 nM; under “3-Chloro-N-[4-(3′-cyano-biphenyl-4-yl)-1-cyclopropylmethyl-piperidin-4-ylmethyl]-4-fluoro-benzenesulfonamide [Example 11]”, 101 to 5500 nM; under `CCCN1CCC(CNC(=O)Nc2cc(Cl)cc(Cl)c2)(c2ccc(-c3cccc(Cl)c3)cc2)CC1` [Example 74], 0.2 to 10 nM.
As to `N#Cc1cccc(-c2ccc(C3(CNC(=O)Nc4cc(Cl)cc(Cl)c4)CCN(CCC(F)(F)F)CC3)cc2)c1` [Example 118], the Ki was 0.2 to 10 nM.
In the case of `CCCN1CCC(CNC(=O)Nc2cc(C(F)(F)F)ccc2Cl)(c2ccc(-c3cccc(C#N)c3)cc2)CC1` [Example 63], the Ki was in the range of 11 to 100 nM.
The compound `COCCN1CCC(CNC(=O)Nc2ccc3c(c2)OCO3)(c2ccc(-c3cccc(C#N)c3)cc2)CC1` [Example 92] gave a Ki of 0.2 to 10 nM.
As to `CC(=O)c1cccc(-c2ccc(C3(CNC(=O)Nc4cc(Cl)cc(Cl)c4)CCN(C(C)C)CC3)cc2)c1` [Example 80], the Ki was 11 to 100 nM.
With `COCCN1CCC(CNC(=O)Nc2cc(Cl)cc(Cl)c2)(c2ccc(-c3ccc4c(c3)OCO4)cc2)CC1` [Example 33], the Ki fell in the range of 11 to 100 nM.
`O=C(NCC1(c2ccc(-c3cccc(Cl)c3)cc2)CCN(C2CCOCC2)CC1)Nc1cc(Cl)cc(Cl)c1` [Example 114] gave a Ki of 101 to 5500 nM.
With `CC(C)CN1CCC(CNC(=O)Nc2cc(Cl)cc(Cl)c2)(c2ccc(-c3cccc(C#N)c3)cc2)CC1` [Example 7, 1-[4-(3′-Cyano-biphenyl-4-yl)-1-isobutyl-piperidin-4-ylmethyl]-3-(3,5-dichloro-phenyl)-urea] the figure was 11 to 100 nM.
`Cc1ccc(C2(CNC(=O)Nc3cc(Cl)cc(Cl)c3)CCN(CC3CC3)CC2)cc1` [Example 25] gave a Ki of 101 to 5500 nM.
Consider `N#Cc1cccc(-c2ccc(C3(CN(CC4CC4)CC4CC4)CCN(C(=O)Nc4cc(Cl)cc(Cl)c4)CC3)cc2)c1` [Example 130], for which the Ki is 101 to 5500 nM.
With `COCCN1CCC(CN(C)C(=O)Nc2cc(Cl)cc(Cl)c2)(c2ccc(-c3cccc(C#N)c3)cc2)CC1` [Example 88] the figure was 0.2 to 10 nM.

For the origin of these results see patent publication US6887889B2 (Pharmacopeia Drug Discovery, Inc., priority 2001, dated 2005).
